The results in this text go back to paper PMC5063977 (The Journal of Biological Chemistry, 2016).

Common to all, as to type: cell-based
One experiment has as its target T1, RAMP2-CLR (AM1 receptor) (Homo sapiens, UniProt O60895+Q16602).
T1 construct: FLAG; expressed in transfected cells; host or cells: HEK-293 or HEK-293S cells, transient transfection, 1:1 RAMP:CLR
The experiment can be described thus: (Ca^2+)i mobilization, HEK-293S cells, RAMP2 + CLR. The following applies: HEK293S, percentage of maximal (Ca^2+)i release with 10 μM ionomycin, mean ± S.E., n = 5. The method, then:
(§1) HEK-293 cells were transfected with FuGENE 6 (Roche Applied Science) in accordance with the manufacturer's instructions using a 1:3 (w:v) DNA:FuGENE ratio and a 1:1 ratio of RAMP to CLR. […] The transfected cell lines were grown for 24–48 h prior to assaying.
(§2) Transfected HEK-293 cells were grown to confluence in black, clear bottomed, 96-well plates. […] Cells were then washed followed by the addition of 100 μl of Ca^2+-free Hanks' balanced salt solution. […] Recordings were obtained every 0.5 s for 120 s. Peak magnitude was calculated using five-point smoothing followed by correction against background fluorescence. The peak was used to generate concentration-response curves and normalized relative to 10 μM ionomycin.
(§3) Data analysis for cAMP assays was performed in GraphPad Prism 6.0f (San Diego, CA). […] These values were then used to quantify signaling bias as change in log (τ/Ka) relative to the natural cognate ligand for the respective receptor ([41]). […] Statistical differences were analyzed using one-way ANOVA or Student's t test as appropriate with post hoc Bonferroni's or Dunnett's multiple comparisons, and p < 0.05 was considered significant. […] To quantitate the ligand-dependent response in the yeast system, a strain lacking GPA1 (MMY11), grown in rich medium, was used as a standard ([72]). […]

A further experiment has as its target T2, RAMP3-CLR (AM2 receptor) (Homo sapiens, UniProt O60896+Q16602).
T2 construct: FLAG; expressed in transfected cells; host or cells: HEK-293 or HEK-293S cells, transient transfection, 1:1 RAMP:CLR
The experiment can be described thus: S. cerevisiae growth assay, GPA1/Gαs chimera, RAMP3 + CLR. Conditions: percentage of yeast strain MMY11 (lacking GPA1); 20 h; mean ± S.E., n = 8. The procedure: (§4) FIGURE 1. […] Reporter gene activity was determined following 20 h of stimulation with each ligand. Data are expressed as a percentage of the maximum response observed in yeast strain MMY11 (lacking GPA1) and are means ± S.E. of n individual data sets. […] Data were determined as statistically different from the cognate ligand for each receptor (*, p < 0.05; **, p < 0.01; ***, p < 0.001) using a one-way ANOVA with Bonferroni's post-test.
(§5) General yeast procedures were performed as described previously ([22], [24]). The human CLR was introduced into yeast cells under the control of the PGK promoter using a plasmid containing ura3 (pDT-PGK). […] Receptor signaling was measured using the yeast growth assay as described previously ([24]). […] A fluorescein signal was detected as an increase in fluorescence (excitation wavelength = 485 nm, emission wavelength = 535 nm) as a measure of growth. Different concentrations of ligand (0.01 nM–100 μM) were assayed using 96-well plates, and fluorescence was detected using a Tecan Infinite M200 microplate reader (Tecan Ultra Evolution, Reading, UK) or a Mithras LB 940 microplate reader (Berthold Technologies, Harpenden, UK) for 20 h.
(§6) Data analysis for cAMP assays was performed in GraphPad Prism 6.0f (San Diego, CA). […] To quantitate the ligand-dependent response in the yeast system, a strain lacking GPA1 (MMY11), grown in rich medium, was used as a standard ([72]). […]

In experiment [1] the target is T3, RAMP1-CLR (CGRP receptor) (Homo sapiens, UniProt O60894+Q16602).
T3 construct: FLAG; expressed in transfected cells; host or cells: HEK-293 or HEK-293S cells, transient transfection, 1:1 RAMP:CLR
The experiment can be described thus: S. cerevisiae growth assay, GPA1/Gαs chimera, RAMP1 + CLR. The following applies: percentage of yeast strain MMY11 (lacking GPA1); 20 h; mean ± S.E., n = 6. The method, then:
as §4, §5, §6

Experiment [2] has as its target T3, RAMP1-CLR (CGRP receptor). Kind of experiment: (Ca^2+)i mobilization, HEK-293S cells, RAMP1 + CLR. The following applies: HEK293S, percentage of maximal (Ca^2+)i release with 10 μM ionomycin, mean ± S.E., n = 5. The procedure:
as §1, §2, §3

T3 sequence (Q16602 23-461): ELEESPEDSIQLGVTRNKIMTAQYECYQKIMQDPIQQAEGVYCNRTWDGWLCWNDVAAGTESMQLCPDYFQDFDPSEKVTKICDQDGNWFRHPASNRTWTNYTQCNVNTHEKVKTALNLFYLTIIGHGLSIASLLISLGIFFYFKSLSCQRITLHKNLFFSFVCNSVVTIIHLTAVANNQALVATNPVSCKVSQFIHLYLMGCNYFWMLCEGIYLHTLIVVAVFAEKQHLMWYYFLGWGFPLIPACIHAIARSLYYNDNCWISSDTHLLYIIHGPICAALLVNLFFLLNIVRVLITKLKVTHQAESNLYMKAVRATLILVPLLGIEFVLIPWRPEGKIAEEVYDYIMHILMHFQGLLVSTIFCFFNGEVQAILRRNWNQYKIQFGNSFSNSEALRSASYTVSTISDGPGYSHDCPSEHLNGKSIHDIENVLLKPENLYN
T3 sequence (O60894 27-148): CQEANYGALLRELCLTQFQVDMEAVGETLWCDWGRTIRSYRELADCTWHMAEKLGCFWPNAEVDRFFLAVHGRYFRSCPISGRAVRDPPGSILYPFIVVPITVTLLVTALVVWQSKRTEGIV
T1 sequence (Q16602 23-461): as the sequence (Q16602 23-461) above
T1 sequence (O60895 43-175): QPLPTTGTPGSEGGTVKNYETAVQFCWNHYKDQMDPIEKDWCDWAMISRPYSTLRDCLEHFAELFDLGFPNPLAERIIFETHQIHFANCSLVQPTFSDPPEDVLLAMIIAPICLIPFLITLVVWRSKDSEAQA
T2 sequence (Q16602 23-461): as the sequence (Q16602 23-461) above
T2 sequence (O60896 24-148): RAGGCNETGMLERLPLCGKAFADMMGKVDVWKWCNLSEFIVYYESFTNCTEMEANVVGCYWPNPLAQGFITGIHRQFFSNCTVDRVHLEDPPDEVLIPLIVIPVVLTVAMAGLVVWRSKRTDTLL

Turning to `CSCC[C@H](NC(=O)[C@H](CC(C)C)NC(=O)[C@H](CCC(N)=O)NC(=O)[C@H](Cc1c[nH]c2ccccc12)NC(=O)[C@H](CC(C)C)NC(=O)[C@H](CCCNC(=N)N)NC(=O)[C@H](Cc1c[nH]cn1)NC(=O)[C@H](CO)NC(=O)[C@H](CC(C)C)NC(=O)[C@H](CC(N)=O)NC(=O)[C@H](CCC(N)=O)NC(=O)[C@@H](NC(=O)[C@H](CCC(N)=O)NC(=O)[C@@H]1CSSC[C@H](NC(=O)CNC(=O)[C@@H](NC(=O)[C@H](CCCNC(=N)N)NC(=O)[C@H](CC(C)C)NC(=O)[C@H](CC(C)C)NC(=O)[C@H](CCC(N)=O)NC(=O)[C@H](C)NC(=O)[C@H](CCC(N)=O)NC(=O)[C@@H](N)[C@@H](C)O)C(C)C)C(=O)N[C@@H](C(C)C)C(=O)N[C@@H](CC(C)C)C(=O)NCC(=O)N[C@@H]([C@@H](C)O)C(=O)N1)C(C)C)C(=O)NCC(=O)N1CCC[C@H]1C(=O)N[C@@H](C)C(=O)NCC(=O)N[C@@H](CCCNC(=N)N)C(=O)N[C@@H](CCC(N)=O)C(=O)N[C@@H](CC(=O)O)C(=O)N[C@@H](CO)C(=O)N[C@@H](C)C(=O)N1CCC[C@H]1C(=O)N[C@H](C(=O)N[C@@H](CC(=O)O)C(=O)N1CCC[C@H]1C(=O)N[C@@H](CO)C(=O)N[C@@H](CO)C(=O)N1CCC[C@H]1C(=O)N[C@@H](Cc1c[nH]cn1)C(=O)N[C@@H](CO)C(=O)N[C@@H](Cc1ccc(O)cc1)C(N)=O)C(C)C` [AM2, adrenomedullin 2], on RAMP2-CLR (AM1 receptor), the Emax came to 20.2 ± 2.8%.
Turning to `CC[C@H](C)[C@H](NC(=O)[C@H](CCC(N)=O)NC(=O)[C@H](Cc1c[nH]cn1)NC(=O)[C@H](C)NC(=O)[C@H](CC(C)C)NC(=O)[C@H](CCCCN)NC(=O)[C@H](CCC(N)=O)NC(=O)[C@@H](NC(=O)[C@@H](NC(=O)[C@@H]1CSSC[C@H](NC(=O)CNC(=O)[C@H](Cc2ccccc2)NC(=O)[C@H](CO)NC(=O)[C@H](CCCNC(=N)N)NC(=O)[C@H](CC(C)C)NC(=O)CNC(=O)[C@H](CCC(N)=O)NC(=O)[C@H](Cc2ccccc2)NC(=O)[C@H](CC(N)=O)NC(=O)[C@H](CC(N)=O)NC(=O)[C@H](CCSC)NC(=O)[C@H](CO)NC(=O)[C@H](CCC(N)=O)NC(=O)[C@H](CCCNC(=N)N)NC(=O)[C@@H](N)Cc2ccc(O)cc2)C(=O)N[C@@H](CCCNC(=N)N)C(=O)N[C@@H](Cc2ccccc2)C(=O)NCC(=O)N[C@@H]([C@@H](C)O)C(=O)N1)[C@@H](C)O)C(C)C)C(=O)N[C@@H](Cc1ccc(O)cc1)C(=O)N[C@@H](CCC(N)=O)C(=O)N[C@@H](Cc1ccccc1)C(=O)N[C@H](C(=O)N[C@@H](CC(=O)O)C(=O)N[C@@H](CCCCN)C(=O)N[C@@H](CC(=O)O)C(=O)N[C@@H](CCCCN)C(=O)N[C@@H](CC(=O)O)C(=O)N[C@@H](CC(N)=O)C(=O)N[C@H](C(=O)N[C@@H](C)C(=O)N1CCC[C@H]1C(=O)N[C@@H](CCCNC(=N)N)C(=O)N[C@@H](CO)C(=O)N[C@@H](CCCCN)C(=O)N[C@H](C(=O)N[C@@H](CO)C(=O)N1CCC[C@H]1C(=O)N[C@@H](CCC(N)=O)C(=O)NCC(=O)N[C@@H](Cc1ccc(O)cc1)C(N)=O)[C@@H](C)CC)C(C)C)[C@@H](C)O` [AM, adrenomedullin], the Emax at RAMP3-CLR (AM2 receptor) was determined as 25.5 ± 3.6%; in experiment [1], 20.4 ± 2.8%; in experiment [2], 38.2 ± 3.8%.
